In brackets after ≈: the same amount, converted by molar mass. Read-outs that look alike come from different tables or passages of the source.
Key:
[1] = tested on: D. pneumoniae; assay: Tube dilution (Nutrient broth), D. pneumoniae; type: cell-based; settings: Streptococcus pneumoniae, Dp-4 D. pneumoniae A9585, Table 3
Description: (§1) The MIC's of BB-P598 against various organisms were also determined by the tube dilution method (Nutrient broth), and the results, compared with sulbenicillin, are shown in Table 3.

[2] = tested on: S. pyogenes; assay: Tube dilution (Nutrient broth), S. pyogenes; type: cell-based; settings: Streptococcus pyogenes, Sp-3 S. pyogenes A9604, Table 3
Description: as §1

[3] = tested on: S. aureus; assay: Tube dilution (Nutrient broth), S. aureus; type: cell-based; settings: Staphylococcus aureus
Description: as §1

[4] = tested on: S. enteritidis; assay: Tube dilution (Nutrient broth), S. enteritidis; type: cell-based; settings: Salmonella enterica, Se-1 S. enteritidis A9531, Table 3
Description: as §1

[5] = tested on: E. coli; assay: Tube dilution (Nutrient broth), E. coli; type: cell-based; settings: Escherichia coli
Description: as §1

[6] = tested on: K. pneumoniae; assay: Tube dilution (Nutrient broth), K. pneumoniae; type: cell-based; settings: Klebsiella pneumoniae
[7] = tested on: P. mirabilis; assay: Tube dilution (Nutrient broth), P. mirabilis; type: cell-based; settings: Proteus mirabilis, Pm-2 P. mirabilis A9900, Table 3
Description: as §1

[8] = tested on: P. morganii; assay: Tube dilution (Nutrient broth), P. morganii; type: cell-based; settings: Morganella morganii
Description: as §1

[9] = tested on: S. marcescens; assay: Tube dilution (Nutrient broth), S. marcescens; type: cell-based; settings: Serratia marcescens
Description: as §1

[10] = tested on: E. cloacae; assay: Tube dilution (Nutrient broth), E. cloacae; type: cell-based; settings: Enterobacter cloacae, El-1 E. cloacae A9656, Table 3
Description: as §1

[11] = tested on: P. aeruginosa; assay: Tube dilution (Nutrient broth), P. aeruginosa; type: cell-based; settings: Pseudomonas aeruginosa
Description: as §1

[12] = tested on: P. aeruginosa A9843; assay: Effect of inoculum size on MIC, serial tube dilution (Nutrient Broth); type: cell-based; settings: for MIC ratio b/a: inoculum 5.3 × 10^5 / 5.3 × 10^4 cell/ml; for MIC ratio c/a: inoculum 5.3 × 10^6 / 5.3 × 10^4 cell/ml
Description: (§2) The effect of inoculum size of the MIC and MBC (Minimum Bacteriacidal Concentration) of BB-P598 against P. aeruginosa A9843 also was determined. The MIC's were determined by the serial tube dilution method in Nutrient Broth using four levels of inoculum size (5.3×10^3, 5.3×10^4, 5.3×10^5 and 5.3×10^6 cells/ml), along with sulbenicillin as a reference standard.

[13] = tested on: P. aeruginosa A9843; assay: Effect of inoculum size on MBC and MBC/MIC ratio; type: cell-based; settings: Table 5; for MBC: Pseudomonas aeruginosa, 99% killed
Description: as §2
Subsequent to the above MIC determinations, aliquots from the non-turbid tubes were added to Nutrient Agar plates to determine the MBC value. The MBC was assigned to the lowest concentration which killed 99% of the original cell population.

[14] = tested on: P. aeruginosa A9843; assay: In vivo activity in experimental infection in mice, P. aeruginosa A9843; settings: single; for Survival/Tested: 100×LD50 challenge; for ED50: Pseudomonas aeruginosa, A9843, sc, dose required to protect 50% of the infected mice, read-out: PD50
Description: (§3) BB-P598 was evaluated in vivo in experimental infections in mice. The pathogenic bacteria employed were P. aeruginosa A9843, E. coli Juhl and S. aureus Smith. Mice were challenged intraperitoneally with a 100×LD50 dose of the pathogens in a 5% suspension of hog gastric mucin. The penicillin was administered subcutaneously as a single treatment, just after the bacterial challenge.
(§4) PD50 = Protective Dose50 , i.e. the dose required to give
(§5) protection to 50% of the infected mice.

[15] = tested on: E. coli Juhl; assay: In vivo activity in experimental infection in mice, E. coli Juhl; settings: single; for Survival/Tested: 100×LD50 challenge; for ED50: Escherichia coli, sc, dose required to protect 50% of the infected mice, read-out: PD50
Description: as §3, §4, §5

[16] = tested on: S. aureus Smith; assay: In vivo activity in experimental infection in mice, S. aureus Smith; settings: single; for Survival/Tested: 100×LD50 challenge; for ED50: Staphylococcus aureus, sc, dose required to protect 50% of the infected mice, read-out: PD50
Description: as §3, §4, §5

[17] = tested on: P. aeruginosa A9843; assay: MIC of the infecting strain with the in vivo test, P. aeruginosa A9843; type: cell-based; settings: Pseudomonas aeruginosa, Table 7
[18] = tested on: E. coli Juhl; assay: MIC of the infecting strain with the in vivo test, E. coli Juhl; type: cell-based; settings: Escherichia coli, Table 7
[19] = tested on: S. aureus Smith; assay: MIC of the infecting strain with the in vivo test, S. aureus Smith; type: cell-based; settings: Staphylococcus aureus, Table 7, read-out: MC
[20] = tested on: Pseudomonas; assay: Agar dilution, activity against Pseudomonas strains; type: cell-based
Description: (§6) The Minimum Inhibitory Concentrations (MIC) for sodium 6-[D-(-)-α-phenyl-α-(7-hydroxy-4-oxo-4H-pyrimido[1,2-b]pyridazin-3-ylcarboxamido)acetamido]penicillanate (BB-P598) and sulbenicillin were determined by the serial twofold agar dilution method using Steers' apparatus on Mueller-Hinton agar plates against 31 test organisms for the primary screening (Table 1) and also against 61 strains of Pseudomonas aeruginosa for the secondary evaluation (Table 2).

[21] = tested on: S. aureus and the Gram-negative organisms except Pseudomonas; assay: Agar dilution, activity against S. aureus and Gram-negative organisms except Pseudomonas; type: cell-based; settings: most of the 6 strains of S. aureus and 19 Gram-negative strains except Pseudomonas
Description: as §6

[22] = tested on: Pseudomonas aeruginosa; settings: prior art penicillins; cited from earlier work
[23] = Sa-2 S. aureus Smith +50% serum, Table 3
[24] = Sa-11 S. aureus BX-1633 A9606, Table 3
[25] = Sa-44 S. aureus A15097, Table 3
[26] = Kp-3 K. pneumoniae A9977, Table 3
[27] = Kp-4 K. pneumoniae A15130, Table 3
[28] = Pa-13 P. aeruginosa A9843, Table 3
[29] = Pa-19 P. aeruginosa A20229, Table 3
[30] = Pa-57 P. aeruginosa A20546, Table 3
[31] = Pseudomonas aeruginosa, A9843, inoculum 5.3 × 10^4 cell/ml, Nutrient Broth, Table 4, read-out: MIC (a)
[32] = Pseudomonas aeruginosa, A9843, inoculum 5.3 × 10^4 cell/ml, Table 5, read-out: MIC
[33] = Pseudomonas aeruginosa, A9843, inoculum 5.3 × 10^6 cell/ml, Nutrient Broth, Table 4, read-out: MIC (c)
[34] = A9843, inoculum 5.3 × 10^3 cell/ml
[35] = A9843, inoculum 5.3 × 10^4 cell/ml

**Q.** What does the source list for `CC1(C)S[C@@H]2[C@H](NC(=O)[C@H](NC(=O)c3cnc4ccc(O)nn4c3=O)c3ccccc3)C(=O)N2[C@H]1C(=O)O` [BB-P598, sodium 6-[D-(-)-α-phenyl-α-(7-hydroxy-4-oxo-4H-pyrimido[1,2-b]pyridazin-3-ylcarboxamido)acetamido]penicillanate]?
**A.** MIC [1]: 0.01 µg/mL; MIC [2]: 0.08 µg/mL; MIC [3, 23]: 1.6 µg/mL; MIC [3, 24]: 50 µg/mL; MIC [3, 25]: 100 µg/mL; MIC [4]: 3.1 µg/mL; MIC ([5]; Ec-1 E. coli NIHJ, Table 3): 6.3 µg/mL; MIC ([5]; Ec-58 E. coli A9675, Table 3): 50 µg/mL; MIC [6, 26]: 12.5 µg/mL; MIC [6, 27]: > 100 µg/mL; MIC [7]: 6.3 µg/mL; MIC ([8]; Pg-8 P. morganii A15153, Nutrient broth, Table 3, read-out: MIC): > 100 µg/mL; MIC ([9]; Sm-1 S. marcescens A20019, Nutrient broth, Table 3, read-out: MIC): 50 µg/mL; MIC [10]: 100 µg/mL; MIC [11, 28]: 6.3 µg/mL; MIC [11, 29]: 6.3 µg/mL; MIC [11, 30]: 3.1 µg/mL; MIC ([12]; Pseudomonas aeruginosa, A9843, inoculum 5.3 × 10^3 cell/ml, Nutrient Broth, Table 4, read-out: MIC): 6.3 µg/mL; MIC ([12]; Pseudomonas aeruginosa, A9843, inoculum 5.3 × 10^3 cell/ml, Table 5, read-out: MIC): 6.3 µg/mL; MIC [12, 31]: 12.5 µg/mL; MIC [12, 32]: 12.5 µg/mL; MIC ([12]; Pseudomonas aeruginosa, A9843, inoculum 5.3 × 10^5 cell/ml, Nutrient Broth, Table 4, read-out: MIC (b)): ≤ 25 µg/mL; MIC [12, 33]: > 100 µg/mL; MIC ratio b/a ([12]; Table 4): 2; MIC ratio c/a ([12]; Table 4): > 8; MBC [13, 34]: 50 µg/mL; MBC [13, 35]: > 100 µg/mL; MBC/MIC ([13]; inoculum 5.3 × 10^3 cell/ml): 8; MBC/MIC ([13]; inoculum 5.3 × 10^4 cell/ml): > 8; Survival/Tested ([14]; 1.6 mg/kg sc): 0/5; Survival/Tested ([14]; 6.3 mg/kg sc): 1/5; Survival/Tested ([14]; 25 mg/kg sc): 1/5; Survival/Tested ([14]; 100 mg/kg sc): 3/5; ED50 [14]: 54 mg/kg; Survival/Tested ([15]; 1.6 mg/kg sc): 0/5; Survival/Tested ([15]; 6.3 mg/kg sc): 1/5; Survival/Tested ([15]; 25 mg/kg sc): 2/5; Survival/Tested ([15]; 100 mg/kg sc): 3/5; ED50 [15]: 40 mg/kg; Survival/Tested ([16]; 1.6 mg/kg sc): 0/5; Survival/Tested ([16]; 6.3 mg/kg sc): 5/5; Survival/Tested ([16]; 25 mg/kg sc): 5/5; Survival/Tested ([16]; 100 mg/kg sc): 5/5; ED50 [16]: 3.1 mg/kg; MIC [17]: 6.3 µg/mL; MIC [18]: 25 µg/mL; MIC [19]: 3.1 µg/mL; mean % relative activity to sulbenicillin ([20]; 6 strains of Pseudomonas in Table 1): 713%; activity relative to sulbenicillin (in words) ([20]; Pseudomonas): significantly more active than sulbenicillin; activity relative to sulbenicillin (in words) [21]: equal to or less active than sulbenicillin

**Q.** Which “potency against Pseudomonas aeruginosa (in words)” value [22] does the source give for `CC1(C)S[C@@H]2[C@H](NC(=O)C(C(=O)O)c3ccccc3)C(=O)N2[C@H]1C(=O)O` (stereo partly drawn) [Carbenicillin, reference compound] here?
**A.** The value was “only a relatively low potency”.

**Q.** Which results are given for `CC1(C)S[C@@H]2[C@H](NC(=O)C(c3ccccc3)S(=O)(=O)O)C(=O)N2[C@H]1C(=O)O` (stereo partly drawn) [Sulbenicillin, reference compound]?
**A.** MIC [1]: 0.08 µg/mL (≈ 0.193 µM); MIC [2]: 0.31 µg/mL (≈ 0.748 µM); MIC [3, 23]: 3.1 µg/mL (≈ 7.48 µM); MIC ([3]; Sa-2 S. aureus Smith A9537, Table 3): 3.1 µg/mL (≈ 7.48 µM); MIC [3, 24]: 12.5 µg/mL (≈ 30.2 µM); MIC [3, 25]: 25 µg/mL (≈ 60.3 µM); MIC [4]: 1.6 µg/mL (≈ 3.86 µM); MIC ([5]; Ec-1 E. coli NIHJ, Table 3): 6.3 µg/mL (≈ 15.2 µM); MIC ([5]; Ec-58 E. coli A9675, Table 3): 100 µg/mL (≈ 241 µM); MIC [6, 26]: 6.3 µg/mL (≈ 15.2 µM); MIC [6, 27]: > 100 µg/mL; MIC [7]: 0.8 µg/mL (≈ 1.93 µM); MIC [8]: 12.5 µg/mL (≈ 30.2 µM); MIC [9]: 25 µg/mL (≈ 60.3 µM); MIC [10]: 50 µg/mL (≈ 121 µM); MIC [11, 28]: 25 µg/mL (≈ 60.3 µM); MIC [11, 29]: > 100 µg/mL; MIC [11, 30]: 25 µg/mL (≈ 60.3 µM); MIC [12, 31]: 50 µg/mL (≈ 121 µM); MIC [12, 32]: 50 µg/mL (≈ 121 µM); MIC [12, 33]: > 400 µg/mL; MIC ([12]; inoculum 5.3 × 10^3 cell/ml, Table 5): 25 µg/mL (≈ 60.3 µM); MIC ratio b/a ([12]; Table 4): 4; MIC ratio c/a ([12]; Table 4): > 8; MBC [13, 34]: 100 µg/mL; MBC [13, 35]: 200 µg/mL; MBC/MIC ([13]; inoculum 5.3 × 10^3 cell/ml): 4; MBC/MIC ([13]; inoculum 5.3 × 10^4 cell/ml): 4; Survival/Tested ([14]; 1.6 mg/kg sc): 0/5; Survival/Tested ([14]; 6.3 mg/kg sc): 0/5; Survival/Tested ([14]; 25 mg/kg sc): 0/5; Survival/Tested ([14]; 100 mg/kg sc): 2/5; Survival/Tested ([14]; 400 mg/kg sc): 4/5; ED50 [14]: 140 mg/kg; Survival/Tested ([15]; 1.6 mg/kg sc): 0/5; Survival/Tested ([15]; 6.3 mg/kg sc): 1/5; Survival/Tested ([15]; 25 mg/kg sc): 5/5; Survival/Tested ([15]; 100 mg/kg sc): 5/5; ED50 [15]: 9.5 mg/kg; Survival/Tested ([16]; 0.4 mg/kg sc): 0/5; Survival/Tested ([16]; 1.6 mg/kg sc): 0/5; Survival/Tested ([16]; 6.3 mg/kg sc): 5/5; Survival/Tested ([16]; 25 mg/kg sc): 5/5; ED50 [16]: 3.1 mg/kg; MIC [17]: 25 µg/mL; MIC [18]: 25 µg/mL; MIC [19]: 6.3 µg/mL; potency against Pseudomonas aeruginosa (in words) [22]: only a relatively low potency

From US4231928A, “Antibacterial agents” (priority 1979, dated 1980)
